Values of other authors as cited in US20060234297A1, “Screening method” (priority 2003, published 2006).

Tests used:
[1] = system: progression of arteriosclerosis; details: clinical study
[2] = system: mouse macrophages stimulated with phorbol ester or tumor necrosis factor (TNF-α)

SMILES: CCOC(=O)C1=C(C)NC(C)=C(C(=O)OCC)C1c1ccccc1/C=C/C(=O)OC(C)(C)C [lacidipine]
- effect on the progression of arteriosclerosis [1]: suppressive effect on the progression of arteriosclerosis
- MMP-9 secretion and production [2]: suppressed MMP-9 secretion and production
